Measurements as given in US6656690B2, “Mass spectrometric methods for biomolecular screening” (priority 1998, dated 2003).
Entries after “also recorded” stand apart in the source; their conditions may differ.

Tested on: 27-mer RNA/DNA chimeric corresponding to the 16S rRNA A site
Assay: ESI-MS and CID/CAD MS-MS protection assay on chimeric 27-mer RNA/DNA (ion trap)
Type: binding, prokaryotic
Description: In order to study the structure of the 27-mer RNA corresponding to the 16S rRNA A site, of sequence 5′-GGC-GUC-ACA-CCU-UCG-GGU-GAA-GUC-GCC-3′ (SEQ ID NO:1) a chimeric RNA/DNA molecule that incorporates three deoxyadenosine (dA) residues at positions 7, 20 and 21 was prepared using standard nucleic acid synthesis protocols on an automated synthesizer. This chimeric nucleic acid of sequence 5′-GGC-GUC-dACA-CCU-UCG-GGU-GdAdA-GUC-GCC-3′ (SEQ ID NO:2) was injected as a solution in water into an electrospray mass spectrometer. […] These fragments correspond to the w7^(2−), w8^(2−) and the a7-B^(2−) fragments respectively, that are formed by cleavage of the chimeric nucleic acid adjacent to each of the incorporated dA residues. […]
Next, another sample of the chimeric nucleic acid was treated with a solution of paromomycin and the resulting mixture analyzed by ESI followed by CID using a mass spectrometer. […]
1 mL (0.6 O.D.) of a solution of a 27-mer RNA containing 3 dA residues (from Example 1) was diluted into 500 μL of 1:1 isopropanol:water and adjusted to provide a solution that was 150 mM in ammonium acetate, pH 7.4 and wherein the RNA concentration was […]. […] This mixture was then subjected to ESI-MS and the ionization of the nucleic acid and its complex monitored in the mass spectrum. […]

NC[C@@H]1O[C@H](O[C@H]2[C@@H](O)[C@H](O[C@@H]3[C@@H](O)[C@H](N)C[C@H](N)[C@H]3O[C@H]3O[C@H](CO)[C@@H](O)[C@H](O)[C@H]3N)O[C@@H]2CO)[C@H](N)[C@@H](O)[C@@H]1O [paromomycin]
fragmentation at dA sites of the complex under CID/CAD (protection of binding site) (same activation energy as free RNA): no fragmentation at the dA sites; also recorded: No cleavage was found to occur; also recorded: No significant fragment ions; also recorded: No fragment ions are detected
complex formation / binding strength with chimeric 27-mer (in words) (target 10 mM as printed, paromomycin and library members ~150 nM): only a 1:1 complex
